Assay results taken from patent publication US20110065706A1, “Therapeutic Agents 812” (AstraZeneca AB, priority 2009, published 2011).

Molecular target: T1, human GPR119 (Homo sapiens, UniProt Q8TDV5)
T1 construct: expressed in transfected cells; host or cells: HEK 293s
T1 sequence (Q8TDV5 1-335): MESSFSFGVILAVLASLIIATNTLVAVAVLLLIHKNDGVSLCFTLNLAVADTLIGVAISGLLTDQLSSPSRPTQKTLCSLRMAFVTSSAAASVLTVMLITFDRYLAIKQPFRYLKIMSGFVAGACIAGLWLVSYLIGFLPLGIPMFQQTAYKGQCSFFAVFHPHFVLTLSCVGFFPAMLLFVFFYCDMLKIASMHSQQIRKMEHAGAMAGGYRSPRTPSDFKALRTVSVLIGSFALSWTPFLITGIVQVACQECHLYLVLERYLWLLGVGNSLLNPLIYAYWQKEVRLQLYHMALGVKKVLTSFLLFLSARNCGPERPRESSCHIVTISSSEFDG
Assay: Cyclic AMP (HTRF cAMP) assay for human GPR119, Method A
Assay type: cell-based
Conditions: Method A, HEK 293s cells over-expressing human GPR119; for activation at 30 µM: HEK293S, 0.75 h, percent effect at top concentration 30 μM relative to maximum (50 μM Oleoylethanolamide) and minimum (1% DMSO) controls; for EC50: midpoint of dose response curve, selected examples

Row | Compound | activation at 30 µM [%] | EC50 [nM]
1 | CC(C)(C)OC(=O)N1CCN(c2ncc(OCc3ccc(S(C)(=O)=O)cc3)cn2)CC1 [Example 1, Tert-butyl 4-(5-(4-(methylsulfonyl)benzyloxy)pyrimidin-2-yl)piperazine-1-carboxylate] | 83 | –
2 | CC(C)(C)OC(=O)N1CCN(c2ncc(OCc3ccc(-n4cncn4)cc3)cn2)CC1 [Example 2, tert-butyl 4-(5-(4-(1H-1,2,4-triazol-1-yl)benzyl-oxy)pyrimidin-2-yl)piperazine-1-carboxylate] | 131 | –
3 | Cc1nc(-c2ccc(COc3cnc(N4CCN(C(=O)OC(C)(C)C)CC4)nc3)cc2)no1 [Example 4, tert-butyl 4-(5-(4-(5-methyl-1,2,4-oxadiazol-3-yl)benzyloxy)pyrimidin-2-yl)piperazine-1-carboxylate] | 69 | –
4 | CC(C)(C)OC(=O)N1CCN(c2ncc(OCc3ccc(-n4cccn4)nc3)cn2)CC1 [Example 5, tert-butyl 4-(5-((6-(1H-pyrazol-1-yl)pyridin-3-yl)methoxy)pyrimidin-2-yl)piperazine-1-carboxylate] | 82 | –
5 | CC(=O)Nc1ccc(COc2cnc(N3CCN(C(=O)OC(C)(C)C)CC3)nc2)cn1 [Example 6, tert-butyl 4-(5-((6-acetamido-pyridin-3-yl)methoxy)pyrimidin-2-yl)piperazine-1-carboxylate] | 59 | –
6 | CC(C)(C)OC(=O)N1CCN(c2ncc(OCc3ccc(-n4cnnn4)cc3)cn2)CC1 [Example 7, Tert-butyl 4-(5-(4-(1H-tetrazol-1-yl)benzyloxy)pyrimidin-2-yl)piperazine-1-carboxylate] | 170 | –
7 | COc1cc(COc2cnc(N3CCN(C(=O)OC(C)(C)C)CC3)nc2)c(F)cn1 [Example 8, tert-butyl 4-(5-((5-fluoro-2-methoxy-pyridin-4-yl)methoxy)pyrimidin-2-yl)piperazine-1-carboxylate] | 26 | –
8 | CC(C)(C)OC(=O)N1CCN(c2ncc(OCc3ccncn3)cn2)CC1 [Example 9, tert-butyl 4-(5-(pyrimidin-4-ylmethoxy)pyrimidin-2-yl)piperazine-1-carboxylate] | 61 | –
9 | Cc1cc(COc2cnc(N3CCN(C(=O)OC(C)(C)C)CC3)nc2)ccc1NC(=O)C(C)C [Example 12, tert-butyl 4-(5-(4-isobutyr-amido-3-methyl-benzyloxy)pyrimidin-2-yl)piperazine-1-carboxylate] | 54 | –
10 | Cc1cc(COc2cnc(N3CCN(C(=O)OC(C)(C)C)CC3)nc2)ccc1NC(=O)C(C)(C)C [Example 13, tert-butyl 4-(5-(3-methyl-4-pivalamido-benzyloxy)pyrimidin-2-yl)piperazine-1-carboxylate] | 41 | –
11 | CC(C)C(=O)Nc1ccc(COc2cnc(N3CCN(C(=O)OC(C)(C)C)CC3)nc2)cc1 [Example 14, tert-butyl 4-(5-(4-isobutyramido-benzyloxy)pyrimidin-2-yl)piperazine-1-carboxylate] | 78 | –
12 | CC(C)(C)OC(=O)N1CCN(c2ncc(OCc3ccc(NC(=O)C(C)(C)C)cc3)cn2)CC1 [Example 15, tert-butyl 4-(5-(4-pivalamido-benzyloxy)pyrimidin-2-yl)piperazine-1-carboxylate] | 80 | –
13 | CNS(=O)(=O)c1ccc(COc2cnc(N3CCN(C(=O)OC(C)(C)C)CC3)nc2)cc1 [Example 16, tert-butyl 4-(5-(4-(N-methyl-sulfamoyl)benzyloxy)pyrimidin-2-yl)piperazine-1-carboxylate] | 57 | –
14 | CC(C)(C)OC(=O)N1CCN(c2ncc(OCc3ccc(OS(C)(=O)=O)cc3)cn2)CC1 [Example 17, tert-butyl 4-(5-(4-(methyl-sulfonyloxy)benzyloxy)pyrimidin-2-yl)piperazine-1-carboxylate] | 65 | 20
15 | C[C@@H]1CN(C(=O)OC(C)(C)C)CCN1c1ncc(OCc2ccc(S(C)(=O)=O)cc2)cn1 [Example 18, (R)-Tert-butyl 3-methyl-4-(5-(4-(methylsulfonyl)benzyloxy)pyrimidin-2-yl)piperazine-1-carboxylate] | 155 | –
16 | C[C@@H]1CN(C(=O)OC(C)(C)C)CCN1c1ncc(OCc2ccncc2)cn1 [Example 19, (R)-Tert-butyl 3-methyl-4-(5-(pyridin-4-ylmethoxy)pyrimidin-2-yl)piperazine-1-carboxylate] | 68 | –
17 | C[C@@H]1CN(C(=O)OC(C)(C)C)CCN1c1ncc(OCc2ccc(C(=O)N(C)CCO)cc2)cn1 [Example 21, (R)-tert-butyl 4-(5-(4-((2-hydroxyethyl) (methyl)carba-moyl)benzyl-oxy)pyrimidin-2-yl)-3-methyl-piperazine-1-carboxylate] | 100 | 202

Row | Compound | activation at 30 µM [%] | EC50 [nM]
18 | CC(C)(C)OC(=O)N1C[C@@H]2CC[C@H]1CN2c1ncc(OCc2ccc(S(C)(=O)=O)cc2)cn1 [Example 29, (1S,4S)-tert-butyl 5-(5-(4-(methylsulfonyl)benzyloxy)pyrimidin-2-yl)-2,5-diazabicyclo [2.2.2]octane-2-carboxylate] | 36 | –
19 | CC(C)(C)OC(=O)N1CCN(c2ncc(OCc3ccc(S(C)(=O)=O)nc3)cn2)CC1 [Example 30, Tert-butyl 4-(5((6-(methylsulfonyl)pyridin-3-yl)methoxy)pyrimidin-2-yl)piperazine-1-carboxylate] | 86 | –
20 | CC(C)(C)OC(=O)N1CCN(c2ncc(OCc3ccc(S(C)(=O)=O)cn3)cn2)CC1 [Example 31, tert-butyl 4-(5-((5-(methylsulfonyl)pyridin-2-yl)methoxy)pyrimidin-2-yl)piperazine-1-carboxylate] | 86 | –
21 | CC(C)(C)OC(=O)N1CCN(c2ncc(OCc3ccc(S(C)(=O)=O)c(F)c3)cn2)CC1 [Example 32, tert-butyl 4-(5-(3-fluoro-4-(methylsulfonyl)benzyloxy)pyrimidin-2-yl)piperazine-1-carboxylate] | 62 | –
22 | Cc1cc(S(C)(=O)=O)ccc1COc1cnc(N2CCN(C(=O)OC(C)(C)C)CC2)nc1 [Example 33, tert-butyl 4-(5-(2-methyl-4-(methylsulfonyl)benzyloxy)pyrimidin-2-yl)piperazine-1-carboxylate] | 82 | –
23 | CC(C)(C)OC(=O)N1CCN(c2ncc(OCc3ccc(S(C)(=O)=O)cc3F)cn2)CC1 [Example 36, tert-butyl 4-(5-(2-fluoro-4-(methylsulf-onyl)benzyl-oxy)pyrimi-din-2-yl)piperazine-1-carboxylate] | 128 | 19
24 | Cc1cc(COc2cnc(N3CCN(C(=O)OC(C)(C)C)CC3)nc2)ccc1S(C)(=O)=O [Example 37, tert-butyl 4-(5-(3-methyl-4-(methylsulf-onyl)benzyl-oxy)pyrimi-din-2-yl)piperazine-1-carboxylate] | 52 | 20
25 | N#Cc1cnccc1COc1cnc(N2CCN(c3ncc(F)cn3)CC2)nc1 [Example 40, 4-((2-(4-(5-Fluoropyrimidin-2-yl)piperazin-1-yl)pyrimidin-5-yloxy)methyl)nicotinonitrile] | 90 | –
26 | CS(=O)(=O)c1ccc(COc2cnc(N3CCN(c4ncc(F)cn4)CC3)nc2)cc1 [Example 42, 5-fluoro-2-(4-(5-(4-(methylsulfonyl)benzyloxy)pyrim-idin-2-yl)piperazin-1-yl)pyrimidine] | 64 | 156
27 | CN(CCO)C(=O)c1ccc(COc2cnc(N3CCN(C(=O)OC(C)(C)C)CC3)nc2)cc1 [Example 43, Tert-butyl 4-(5-(4-((2-hydroxyethyl)(methyl)carbamoyl)benzyloxy)pyrimidin-2-yl)piperazine-1-carboxylate] | 48 | –
28 | CC(C)(C)OC(=O)N1CCN(c2ncc(OCc3ccc(C(=O)NCCO)cc3)cn2)CC1 [Example 44, tert-butyl 4-(5-(4-(2-hydroxyethyl-carbamoyl)benz-yloxy)pyrimi-din-2-yl)piperazine-1-carboxylate] | 61 | –
29 | CNC(=O)c1ccc(COc2cnc(N3CCN(C(=O)OC(C)(C)C)CC3)nc2)cc1 [Example 45, tert-butyl 4-(5-(4-(methylcarba-moyl)benzyloxy)pyrimidin-2-yl)piperazine-1-carboxylate] | 142 | –
30 | CC(C)NC(=O)c1ccc(COc2cnc(N3CCN(C(=O)OC(C)(C)C)CC3)nc2)cc1 [Example 46, tert-butyl 4-(5-(4-(isopropylcarba-moyl)benzyl-oxy)pyrimidin-2-yl)piperazine-1-carboxylate] | 94 | 32
31 | CC(C)(C)NC(=O)c1ccc(COc2cnc(N3CCN(C(=O)OC(C)(C)C)CC3)nc2)cc1 [Example 47, tert-butyl 4-(5-(4-(tert-butylcarbamoyl)benzyloxy)pyrimidin-2-yl)piperazine-1-carboxylate] | 109 | –
32 | CN(C)CCNC(=O)c1ccc(COc2cnc(N3CCN(C(=O)OC(C)(C)C)CC3)nc2)cc1 [Example 48, tert-butyl 4-(5-(4-(2-(dimethylamino)ethylcarba-moyl)benzyloxy)pyrimidin-2-yl)piperazine-1-carboxylate] | 26 | –
33 | CN(C)CCN(C)C(=O)c1ccc(COc2cnc(N3CCN(C(=O)OC(C)(C)C)CC3)nc2)cc1 [Example 49, tert-butyl 4-(5-(4-((2-(dimethylamino)ethyl)(methyl)carbamoyl)benzyloxy)pyrim-idin-2-yl)piperazine-1-carboxylate] | 27 | 2040
